Experimental data reported in ChEMBL document CHEMBL1201861, “Genomics of Drug Sensitity in Cancer screening data, Wellcome Trust Sanger Institute”.

How the values were obtained:
Assay in all cases: cells
Conditions in all cases: Homo sapiens
CAL-72 = format: functional, cell-based
Description: SANGER: Inhibition of human CAL-72 cell growth in a cell viability assay.

8305C = format: functional, cell-based
Description: SANGER: Inhibition of human 8305C cell growth in a cell viability assay.

CAMA-1 = format: functional, cell-based
Description: SANGER: Inhibition of human CAMA-1 cell growth in a cell viability assay.

RVH-421 = format: functional, cell-based
Description: SANGER: Inhibition of human RVH-421 cell growth in a cell viability assay.

D-392MG = format: functional, cell-based
NCI-H2122 = format: functional, cell-based
Description: SANGER: Inhibition of human NCI-H2122 cell growth in a cell viability assay.

MDA-MB-415 = format: functional, cell-based
HCC1806 = format: functional, cell-based
Description: SANGER: Inhibition of human HCC1806 cell growth in a cell viability assay.

786-0 = format: functional, cell-based
Description: SANGER: Inhibition of human 786-0 cell growth in a cell viability assay.

NCI-H1693 = format: functional, cell-based
Description: SANGER: Inhibition of human NCI-H1693 cell growth in a cell viability assay.

COLO-680N = format: functional, cell-based
Description: SANGER: Inhibition of human COLO-680N cell growth in a cell viability assay.

OAW-28 = format: functional, cell-based
Description: SANGER: Inhibition of human OAW-28 cell growth in a cell viability assay.

DBTRG-05MG = format: functional, cell-based
Description: SANGER: Inhibition of human DBTRG-05MG cell growth in a cell viability assay.

NCI-H2405 = format: functional, cell-based
Description: SANGER: Inhibition of human NCI-H2405 cell growth in a cell viability assay.

FaDu = format: functional, cell-based
Description: SANGER: Inhibition of human FADU cell growth in a cell viability assay.

COLO-678 = format: functional, cell-based
Description: SANGER: Inhibition of human COLO-678 cell growth in a cell viability assay.

LU-99A = format: functional, cell-based
Description: SANGER: Inhibition of human LU-99A cell growth in a cell viability assay.

LK-2 = format: functional, cell-based
Description: SANGER: Inhibition of human LK-2 cell growth in a cell viability assay.

HCC1954 = format: functional, cell-based
Description: SANGER: Inhibition of human HCC1954 cell growth in a cell viability assay.

RPMI-7951 = format: functional, cell-based
Description: SANGER: Inhibition of human RPMI-7951 cell growth in a cell viability assay.

HT1197 = format: functional, cell-based, HT-1197
Description: SANGER: Inhibition of human HT-1197 cell growth in a cell viability assay.

SW948 = format: functional, cell-based
Description: SANGER: Inhibition of human SW948 cell growth in a cell viability assay.

HCC70 = format: functional, cell-based
Description: SANGER: Inhibition of human HCC70 cell growth in a cell viability assay.

HMV-2 cell line = format: functional, cell-based
Description: SANGER: Inhibition of human HMV-II cell growth in a cell viability assay.

HSC-4 = format: functional, cell-based
Description: SANGER: Inhibition of human HSC-4 cell growth in a cell viability assay.

NCI-H520 = format: functional, cell-based
Description: SANGER: Inhibition of human NCI-H520 cell growth in a cell viability assay.

SAS = format: functional, cell-based
Description: SANGER: Inhibition of human SAS cell growth in a cell viability assay.

ASPC1 = format: functional, cell-based
Description: SANGER: Inhibition of human AsPC-1 cell growth in a cell viability assay.

CAL-120 = format: functional, cell-based
Description: SANGER: Inhibition of human CAL-120 cell growth in a cell viability assay.

MFE-280 = format: functional, cell-based
Description: SANGER: Inhibition of human MFE-280 cell growth in a cell viability assay.

ESS-1 = format: functional, cell-based
Description: SANGER: Inhibition of human ESS-1 cell growth in a cell viability assay.

FTC-133 = format: functional, cell-based
EGI-1 = format: functional, cell-based
Description: SANGER: Inhibition of human EGI-1 cell growth in a cell viability assay.

NB17 = format: functional, cell-based
Description: SANGER: Inhibition of human NB17 cell growth in a cell viability assay.

P12-Ichikawa = format: functional, cell-based
SW1573 = format: functional, cell-based
Description: SANGER: Inhibition of human SW1573 cell growth in a cell viability assay.

Capan-2 = format: functional, cell-based
Description: SANGER: Inhibition of human Capan-2 cell growth in a cell viability assay.

NCI-H1793 = format: functional, cell-based
Description: SANGER: Inhibition of human NCI-H1793 cell growth in a cell viability assay.

HGC-27 = format: functional, cell-based
Description: SANGER: Inhibition of human HGC-27 cell growth in a cell viability assay.

VM-CUB-1 = format: functional, cell-based
Description: SANGER: Inhibition of human VM-CUB-1 cell growth in a cell viability assay.

HLE = format: functional, cell-based
Description: SANGER: Inhibition of human HLE cell growth in a cell viability assay.

NCI-H358 = format: functional, cell-based
Description: SANGER: Inhibition of human NCI-H358 cell growth in a cell viability assay.

SW1783 = format: functional, cell-based
Description: SANGER: Inhibition of human SW1783 cell growth in a cell viability assay.

MDA-MB-453 = format: functional, cell-based
Description: SANGER: Inhibition of human MDA-MB-453 cell growth in a cell viability assay.

NCI-H596 = format: functional, cell-based
Description: SANGER: Inhibition of human NCI-H596 cell growth in a cell viability assay.

SCC-25 = format: functional, cell-based
Description: SANGER: Inhibition of human SCC-25 cell growth in a cell viability assay.

T84 = format: functional, cell-based
Description: SANGER: Inhibition of human T84 cell growth in a cell viability assay.

KYSE-520 cell line = format: functional, cell-based
Description: SANGER: Inhibition of human KYSE-520 cell growth in a cell viability assay.

HuCCT-1 = format: functional, cell-based, HuCCT1
Description: SANGER: Inhibition of human HuCCT1 cell growth in a cell viability assay.

RCM-1 = format: functional, cell-based
Description: SANGER: Inhibition of human RCM-1 cell growth in a cell viability assay.

## C[C@]1(c2nc3c(C(N)=O)cccc3[nH]2)CCCN1 [VELIPARIB]
CAL-72
  IC50: > 5000 nM
8305C
  IC50: > 5000 nM
CAMA-1
  IC50: > 5000 nM
RVH-421
  IC50: > 5000 nM
D-392MG
  IC50: > 5000 nM
NCI-H2122
  IC50: > 5000 nM
MDA-MB-415
  IC50: > 5000 nM
HCC1806
  IC50: > 5000 nM
786-0
  IC50: > 5000 nM
NCI-H1693
  IC50: > 5000 nM
COLO-680N
  IC50: > 5000 nM
OAW-28
  IC50: > 5000 nM
DBTRG-05MG
  IC50: > 5000 nM
NCI-H2405
  IC50: > 5000 nM
FaDu
  IC50: > 5000 nM
COLO-678
  IC50: > 5000 nM
LU-99A
  IC50: > 5000 nM
LK-2
  IC50: > 5000 nM
HCC1954
  IC50: > 5000 nM
RPMI-7951
  IC50: > 5000 nM
HT1197
  IC50: > 5000 nM
SW948
  IC50: > 5000 nM
HCC70
  IC50: > 5000 nM
HMV-2 cell line
  IC50: > 5000 nM
HSC-4
  IC50: > 5000 nM
NCI-H520
  IC50: > 5000 nM
SAS
  IC50: > 5000 nM
ASPC1
  IC50: > 5000 nM
CAL-120
  IC50: > 5000 nM
MFE-280
  IC50: > 5000 nM
ESS-1
  IC50: > 5000 nM
FTC-133
  IC50: > 5000 nM
EGI-1
  IC50: > 5000 nM
NB17
  IC50: > 5000 nM
P12-Ichikawa
  IC50: > 5000 nM
SW1573
  IC50: > 5000 nM
Capan-2
  IC50: > 5000 nM
NCI-H1793
  IC50: > 5000 nM
HGC-27
  IC50: > 5000 nM
VM-CUB-1
  IC50: > 5000 nM
HLE
  IC50: > 5000 nM
NCI-H358
  IC50: > 5000 nM
SW1783
  IC50: > 5000 nM
MDA-MB-453
  IC50: > 5000 nM
NCI-H596
  IC50: > 5000 nM
SCC-25
  IC50: > 5000 nM
T84
  IC50: > 5000 nM
KYSE-520 cell line
  IC50: > 5000 nM
HuCCT-1
  IC50: > 5000 nM
RCM-1
  IC50: > 5000 nM

## CC[C@]1(O)C[C@@H]2CN(CCc3c([nH]c4ccccc34)[C@@](C(=O)OC)(c3cc4c(cc3OC)N(C)[C@H]3[C@@](O)(C(=O)OC)[C@H](OC(C)=O)[C@]5(CC)C=CCN6CC[C@]43[C@@H]65)C2)C1 [VINBLASTINE]
CAL-72
  IC50: > 100 nM
8305C
  IC50: 3.67 nM
CAMA-1
  IC50: 32 nM
RVH-421
  IC50: 7.25 nM
D-392MG
  IC50: 18.9 nM
NCI-H2122
  IC50: 3.44 nM
MDA-MB-415
  IC50: 18.5 nM
HCC1806
  IC50: 0.63 nM
786-0
  IC50: 15.6 nM
NCI-H1693
  IC50: 78.2 nM
COLO-680N
  IC50: 74.7 nM
OAW-28
  IC50: 40.7 nM
DBTRG-05MG
  IC50: > 100 nM
NCI-H2405
  IC50: > 100 nM
FaDu
  IC50: 20 nM
COLO-678
  IC50: > 100 nM
LU-99A
  IC50: 20.8 nM
LK-2
  IC50: 7.5 nM
HCC1954
  IC50: > 100 nM
RPMI-7951
  IC50: 1.66 nM
HT1197
  IC50: 99.8 nM
SW948
  IC50: 76 nM
HCC70
  IC50: 20.8 nM
HMV-2 cell line
  IC50: 3.9 nM
HSC-4
  IC50: 2.36 nM
NCI-H520
  IC50: 30.1 nM
SAS
  IC50: 28.1 nM
ASPC1
  IC50: 13.2 nM
CAL-120
  IC50: 87.3 nM
MFE-280
  IC50: 36.1 nM
ESS-1
  IC50: 4.88 nM
FTC-133
  IC50: 8.44 nM
EGI-1
  IC50: 10.8 nM
NB17
  IC50: 21.8 nM
P12-Ichikawa
  IC50: 1.7 nM
SW1573
  IC50: 33.2 nM
Capan-2
  IC50: > 100 nM
NCI-H1793
  IC50: 29.6 nM
HGC-27
  IC50: 1.01 nM
VM-CUB-1
  IC50: 4.28 nM
HLE
  IC50: 4.23 nM
NCI-H358
  IC50: 37 nM
SW1783
  IC50: 85.5 nM
MDA-MB-453
  IC50: 3.29 nM
NCI-H596
  IC50: > 100 nM
SCC-25
  IC50: 15.7 nM
T84
  IC50: > 100 nM
KYSE-520 cell line
  IC50: 47.6 nM
HuCCT-1
  IC50: 17.3 nM
RCM-1
  IC50: > 100 nM
